{"source": "ChEMBL document CHEMBL1155676", "about": "“Isolation and biochemical characterization of a new topoisomerase I inhibitor from Ocotea leucoxylon” (J Nat Prod, 2000)", "key": {"[1]": {"test_system": "Saccharomyces cerevisiae", "test": "Growth inhibition of Saccharomyces cerevisiae RS322 after 48 hrs by XTT assay", "type": "functional"}, "[2]": {"test_system": "Saccharomyces cerevisiae", "test": "Growth inhibition of Saccharomyces cerevisiae RS321 after 48 hrs by XTT assay", "type": "functional"}, "[3]": {"test_system": "Saccharomyces cerevisiae", "test": "Growth inhibition of Saccharomyces cerevisiae RJ03 after 48 hrs by XTT assay", "type": "functional"}, "[4]": {"species": "Bos taurus", "test": "Inhibition of calf thymus DNA topoisomerase 1-mediated supercoiled pSP64 plasmid DNA relaxation at 20 uM"}, "[5]": {"test_system": "P388", "test": "Cytotoxicity against mouse P388 cells by soft-agar colony-formation assay", "type": "functional, cell-based"}, "[6]": {"test_system": "P388", "test": "Cytotoxicity against camptothecin-resistant mouse P388 cells by soft-agar colony-formation assay", "type": "functional, cell-based"}, "[7]": {"species": "Mus musculus", "test": "Cytotoxicity against mouse lung carcinoma cells upto 30 uM", "type": "functional, cell-based"}, "[8]": {"test_system": "COLO 205", "test": "Cytotoxicity against human COLO205 cells upto 30 uM", "type": "functional, cell-based"}, "[9]": {"test_system": "B16-F10", "test": "Cytotoxicity against mouse B16F10 cells upto 30 uM", "type": "functional, cell-based"}, "[10]": {"target": "T1, DNA topoisomerase 1 (Homo sapiens) (UniProt P11387)", "T1 sequence (whole entry)": "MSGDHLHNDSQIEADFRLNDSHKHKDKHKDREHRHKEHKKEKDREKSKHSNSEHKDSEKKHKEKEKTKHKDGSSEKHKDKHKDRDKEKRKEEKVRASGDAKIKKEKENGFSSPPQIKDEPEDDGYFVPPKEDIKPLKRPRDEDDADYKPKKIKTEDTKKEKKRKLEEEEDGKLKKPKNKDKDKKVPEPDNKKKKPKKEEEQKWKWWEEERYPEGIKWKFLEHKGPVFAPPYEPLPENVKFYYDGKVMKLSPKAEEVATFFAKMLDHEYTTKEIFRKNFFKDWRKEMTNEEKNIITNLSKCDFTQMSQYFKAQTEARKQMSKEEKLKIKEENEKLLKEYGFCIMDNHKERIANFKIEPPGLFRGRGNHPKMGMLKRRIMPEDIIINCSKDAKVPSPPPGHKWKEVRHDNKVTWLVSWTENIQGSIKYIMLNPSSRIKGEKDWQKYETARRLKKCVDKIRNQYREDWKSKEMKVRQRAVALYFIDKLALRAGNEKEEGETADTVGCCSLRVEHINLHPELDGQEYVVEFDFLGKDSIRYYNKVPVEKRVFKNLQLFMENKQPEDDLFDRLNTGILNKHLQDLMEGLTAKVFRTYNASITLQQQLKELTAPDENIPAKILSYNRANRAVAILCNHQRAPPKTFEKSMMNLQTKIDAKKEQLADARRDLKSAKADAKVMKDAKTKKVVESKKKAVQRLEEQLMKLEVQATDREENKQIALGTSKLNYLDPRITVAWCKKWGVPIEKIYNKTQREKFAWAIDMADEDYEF", "test": "Induction of human recombinant topoisomerase 1-mediated pBR322 plasmid DNA cleavage assessed as increase in nicked form 2 at 100 uM after 60 mins"}, "[11]": {"target": "T1, DNA topoisomerase 1 (Homo sapiens)", "test": "Inhibition of human recombinant DNA topoisomerase 1-mediated pBR322 DNA relaxation activity at 20 to 200 uM after 30 mins by gel electrophoresis"}}, "note": "Active and inactive are the calls of the source. No cut-off for these calls is given here.", "data": [{"smiles": "COc1cc2c(cc1OC)-c1c3c(cc4c1[C@H](C2)N(C)CC4)OCO3", "values": [{"measurement": "Activity", "setting": "[1]", "result": "inactive"}, {"measurement": "Activity", "setting": "[2]", "result": "inactive"}, {"measurement": "Activity", "setting": "[3]", "result": "inactive"}]}, {"smiles": "COc1cc2c[n+](C)c3c4cc5c(cc4ccc3c2cc1OC)OCO5", "values": [{"measurement": "Activity", "setting": "[4]", "result": "Active"}]}, {"smiles": "COc1cc2c(cc1OC)-c1c3c(cc4ccnc(c14)C2=O)OCO3", "note": "[DICENTRINONE]", "values": [{"measurement": "IC50", "setting": "[5]", "result": 100, "unit": "µM"}, {"measurement": "IC50", "setting": "[6]", "result": 100, "unit": "µM"}, {"measurement": "Activity", "setting": "[7]", "result": "Not toxic"}, {"measurement": "Activity", "setting": "[8]", "result": "Not toxic"}, {"measurement": "Activity", "setting": "[9]", "result": "Not toxic"}, {"measurement": "IC12", "setting": "[1]", "result": 49, "unit": "µg/mL"}, {"measurement": "IC12", "setting": "[2]", "result": "> 2000", "unit": "µg/mL"}, {"measurement": "IC12", "setting": "[3]", "result": "> 2000", "unit": "µg/mL"}, {"measurement": "Activity", "setting": "[10]", "result": 29, "unit": "%"}, {"measurement": "Activity", "setting": "[11]", "result": "inactive"}]}]}
